Values after ≈ are worked out from the molar mass of the structure shown. Values joined by “and” are separate entries in the source; they are usually repeats but may differ in a detail not shown here. Equal values may be shown once.
Columns and labels:
Test in all cases: ≥ marks a high value that may be exact or a test limit, other limits are often not marked, values filed in µg/mL are converted to µM
[1] = tested on: Staphylococcus aureus USA 300
[2] = tested on: Klebsiella pneumoniae ATCC 13883
[3] = tested on: Pseudomonas aeruginosa PAO1
[4] = tested on: Escherichia coli ATCC 25922
Escherichia coli JW0013 = tested on: Escherichia coli JW0013
[5] = tested on: Staphylococcus epidermidis KCTC 1917
[6] = tested on: Staphylococcus aureus KCTC 1621
[7] = tested on: Bacillus subtilis KCTC 3068
[8] = tested on: Salmonella typhimurium KCTC 1926
[9] = tested on: Escherichia coli KCTC 1682
[10] = tested on: Pseudomonas aeruginosa KCTC 1637
[11] = tested on: Enterococcus faecalis ATCC 29212
[12] = tested on: Staphylococcus epidermidis C621
[13] = tested on: Bacillus subtilis ATCC 6633
[14] = tested on: Pseudomonas aeruginosa ATCC 27853
[15] = tested on: Staphylococcus aureus ATCC 25923
Escherichia coli UB1005 = tested on: Escherichia coli UB1005

MIC (Escherichia coli JW0013) [µM] | MIC [5] [µM] | MIC [6] [µM] | MIC [7] [µM] | MIC [8] [µM] | MIC [9] [µM] | MIC [10] [µM] | Structure (SMILES) | also measured
0.3 (≈ 0.624 µg/mL) | – | – | – | – | – | – | CC[C@H](C)[C@H](NC(=O)[C@H](Cc1ccc(O)cc1)NC(=O)[C@@H](NC(=O)[C@@H]1CCCN1C(=O)[C@H](CCCCN)NC(=O)[C@H](CC(N)=O)NC(=O)[C@H](CC(N)=O)NC(=O)CN)C(C)C)C(=O)N1CCC[C@H]1C(=O)N[C@@H](CCC(N)=O)C(=O)N1CCC[C@H]1C(=O)N[C@@H](CCCN=C(N)N)C(=O)N1CCC[C@H]1C(=O)N1CCC[C@H]1C(=O)N[C@@H](Cc1cnc[nH]1)C(=O)N1CCC[C@H]1C(=O)N[C@@H](CCCN=C(N)N)C(=O)N[C@@H](CC(C)C)C(=O)O [GNNKPVYIPQPRPPHPRL] | –
1.98 (≈ 4.8 µg/mL) | – | – | – | – | – | – | CC[C@H](C)[C@H](NC(=O)[C@H](CCCN=C(N)N)NC(=O)[C@H](CCCN=C(N)N)NC(=O)[C@@H]1CCCN1C(=O)[C@@H]1CCCN1C(=O)[C@H](CCCN=C(N)N)NC(=O)[C@@H]1CCCN1C(=O)[C@H](CCCN=C(N)N)NC(=O)[C@@H]1CCCN1C(=O)[C@H](CC(C)C)NC(=O)[C@H](Cc1ccc(O)cc1)NC(=O)[C@@H]1CCCN1C(=O)[C@@H]1CCCN1C(=O)[C@H](CCCCN)NC(=O)[C@H](CC(=O)O)NC(=O)[C@@H](N)CCC(N)=O)C(=O)N[C@@H](Cc1ccc(O)cc1)C(=O)N[C@@H](CC(N)=O)C(=O)N[C@@H](CCCN=C(N)N)C(N)=O [QDKPPYLPRPRPPRRIYNR] | –
0.3 (≈ 0.641 µg/mL) | – | – | – | – | – | – | CC[C@H](C)[C@H](NC(=O)[C@H](CCCN=C(N)N)NC(=O)[C@@H](N)CCCN=C(N)N)C(=O)N[C@@H](CCCN=C(N)N)C(=O)N1CCC[C@H]1C(=O)N[C@@H](CCCN=C(N)N)C(=O)N[C@@H](CCCN=C(N)N)C(=O)N1CCC[C@H]1C(=O)N[C@@H](CCCN=C(N)N)C(=O)N[C@@H](CC(C)C)C(=O)N1CCC[C@H]1C(=O)N[C@@H](CCCN=C(N)N)C(=O)N1CCC[C@H]1C(=O)N[C@@H](CCCN=C(N)N)C(=O)N1CCC[C@H]1C(=O)N[C@@H](CCCN=C(N)N)C(=O)O [RRIRPRRPRLPRPRPR] | –

The next lines start with the compound.

Structure (SMILES) | MIC (Escherichia coli JW0013) [µM] | MIC [5] [µM] | MIC [6] [µM] | MIC [7] [µM] | MIC [8] [µM] | MIC [9] [µM] | MIC [10] [µM] | also measured
CC[C@H](C)[C@H](NC(=O)[C@H](CCC(N)=O)NC(=O)[C@H](CCC(N)=O)NC(=O)[C@@H](NC(=O)[C@@H](NC(=O)[C@H](CCCN=C(N)N)NC(=O)[C@H](CCCCN)NC(=O)[C@H](Cc1ccccc1)NC(=O)CN)[C@@H](C)CC)C(C)C)C(=O)N[C@@H](CCC(N)=O)C(=O)N[C@@H](CC(=O)O)C(=O)N[C@@H](Cc1ccccc1)C(=O)N[C@@H](CC(C)C)C(=O)N[C@@H](CCCN=C(N)N)C(=O)N[C@@H](CC(N)=O)C(=O)N[C@@H](CC(C)C)C(=O)N[C@H](C(N)=O)C(C)C [GFKRIVQQIQDFLRNLV] | – | – | – | – | – | – | – | MIC [1]: 6.2 µM and 12.5 µM
CC(C)C[C@H](NC(=O)[C@H](C)NC(=O)[C@H](CCCCN)NC(=O)CNC(=O)[C@H](CC(C)C)NC(=O)[C@H](C)NC(=O)[C@H](CCCCN)NC(=O)[C@H](CC(C)C)NC(=O)[C@H](C)NC(=O)[C@H](CO)NC(=O)[C@H](CC(C)C)NC(=O)[C@H](CC(C)C)NC(=O)CN)C(N)=O [GLLSALKALGKAL] | – | – | – | – | – | – | – | MIC [2]: 25 µM (≈ 31.3 µg/mL); MIC [3]: > 25 µM; MIC [1]: 25 µM (≈ 31.3 µg/mL); MIC [4]: 25 µM (≈ 31.3 µg/mL)
CC(C)C[C@H](NC(=O)[C@H](CCCCN)NC(=O)[C@H](CCCCN)NC(=O)[C@H](CC(C)C)NC(=O)[C@H](CC(C)C)NC(=O)[C@H](CCCCN)NC(=O)[C@H](CCCCN)NC(=O)[C@H](CC(C)C)NC(=O)[C@H](CCCCN)NC(=O)[C@H](CCCCN)NC(=O)[C@H](CCCN=C(N)N)NC(=O)[C@H](CC(C)C)NC(=O)[C@H](CCCN=C(N)N)NC(=O)[C@H](CCCCN)NC(=O)[C@H](CC(C)C)NC(=O)[C@H](CCCN=C(N)N)NC(=O)CN)C(=O)N[C@@H](CO)C(N)=O [GRLKRLRKKLKKLLKKLS] | – | 8 (≈ 17.6 µg/mL) | 4 (≈ 8.82 µg/mL) | 4 (≈ 8.82 µg/mL) | 2 (≈ 4.41 µg/mL) | 8 (≈ 17.6 µg/mL) | 4 (≈ 8.82 µg/mL) | –
CC(C)C[C@H](NC(=O)[C@H](Cc1ccc(O)cc1)NC(=O)[C@H](Cc1cnc[nH]1)NC(=O)[C@@H](NC(=O)[C@H](CC(C)C)NC(=O)[C@H](C)NC(=O)[C@H](C)NC(=O)[C@H](CCCCN)NC(=O)[C@H](C)NC(=O)[C@@H](NC(=O)[C@H](Cc1cnc[nH]1)NC(=O)[C@H](CCCCN)NC(=O)CNC(=O)[C@@H](NC(=O)[C@H](Cc1cnc[nH]1)NC(=O)[C@H](C)NC(=O)[C@H](C)NC(=O)[C@H](CCCCN)NC(=O)[C@H](CCCCN)NC(=O)[C@H](Cc1ccccc1)NC(=O)[C@H](Cc1ccccc1)NC(=O)[C@H](CO)NC(=O)CNC(=O)[C@H](Cc1c[nH]c2ccccc12)NC(=O)CN)C(C)C)C(C)C)[C@@H](C)O)C(=O)O [GWGSFFKKAAHVGKHVAKAALTHYL] | – | 1 (≈ 2.73 µg/mL) | 1 (≈ 2.73 µg/mL) | 2 (≈ 5.45 µg/mL) | 2 (≈ 5.45 µg/mL) | 2 (≈ 5.45 µg/mL) | 2 (≈ 5.45 µg/mL) | –
CC[C@H](C)[C@H](N)C(=O)N[C@@H](CC(C)C)C(=O)N[C@@H](CCCCN)C(=O)N[C@@H](CC(C)C)C(=O)N[C@@H](Cc1ccccc1)C(=O)N[C@@H](CCCCN)C(=O)N[C@@H](CCCN=C(N)N)C(=O)N[C@H](C(=O)N[C@H](C(=O)N[C@@H](CCCCN)C(=O)N[C@@H](CCCN=C(N)N)C(=O)N[C@H](C(=O)N[C@@H](CC(C)C)C(=O)N[C@@H](CCCCN)C(=O)N[C@@H](Cc1ccccc1)C(=O)N[C@@H](CC(C)C)C(=O)N[C@@H](CCCN=C(N)N)C(=O)N[C@@H](CCCCN)C(=O)N[C@@H](CC(C)C)C(=O)O)[C@@H](C)CC)C(C)C)[C@@H](C)CC [ILKLFKRIVKRILKFLRKL] | – | 4 (≈ 9.7 µg/mL) | 8 (≈ 19.4 µg/mL) | 4 (≈ 9.7 µg/mL) | 8 (≈ 19.4 µg/mL) | 8 (≈ 19.4 µg/mL) | 8 (≈ 19.4 µg/mL) | –
C[C@H](NC(=O)[C@H](C)NC(=O)[C@H](Cc1c[nH]c2ccccc12)NC(=O)[C@H](C)NC(=O)[C@H](C)NC(=O)[C@H](Cc1c[nH]c2ccccc12)NC(=O)[C@H](C)NC(=O)[C@H](C)NC(=O)[C@H](Cc1c[nH]c2ccccc12)NC(=O)[C@H](C)NC(=O)[C@H](C)NC(=O)[C@H](CCCCN)NC(=O)[C@H](CCCCN)NC(=O)[C@H](CCCCN)NC(=O)[C@H](CCCCN)NC(=O)[C@H](CCCCN)NC(=O)[C@@H](N)CCCCN)C(N)=O [KKKKKKAAWAAWAAWAA] | – | – | – | – | – | – | – | MIC [11]: > 32 µM; MIC [12]: 8 µM (≈ 15.3 µg/mL); MIC [13]: 4 µM (≈ 7.65 µg/mL); MIC [14]: 8 µM (≈ 15.3 µg/mL); MIC [4]: 8 µM (≈ 15.3 µg/mL); MIC [15]: 32 µM (≈ 61.2 µg/mL); MIC (Escherichia coli UB1005): 1 µM (≈ 1.91 µg/mL)
CC[C@H](C)[C@H](NC(=O)[C@H](CCCCN)NC(=O)[C@@H]1CCCN1C(=O)[C@H](CC(C)C)NC(=O)[C@@H](N)CCCCN)C(=O)N[C@@H](Cc1c[nH]c2ccccc12)C(=O)N[C@@H](Cc1c[nH]c2ccccc12)C(=O)N[C@H](C(=O)N[C@@H](CCCCN)C(=O)N[C@H](C(=O)N1CCC[C@H]1C(=O)N[C@@H](CCCCN)C(N)=O)C(C)C)[C@@H](C)CC [KLPKIWWIKVPK] | – | 4.07 (≈ 6.25 µg/mL) | 8.14 (≈ 12.5 µg/mL) | 4.07 (≈ 6.25 µg/mL) | 4.07 (≈ 6.25 µg/mL) | 8.14 (≈ 12.5 µg/mL) | 4.07 (≈ 6.25 µg/mL) | –
CC[C@H](C)[C@H](NC(=O)[C@H](CC(C)C)NC(=O)[C@@H](N)CC(C)C)C(=O)N[C@H](C(=O)N[C@@H](CC(C)C)C(=O)N[C@@H](CCCN=C(N)N)C(=O)N[C@@H](CCCN=C(N)N)C(=O)N[C@@H](CCCN=C(N)N)C(=O)N[C@@H](Cc1c[nH]c2ccccc12)C(=O)N[C@@H](CCCN=C(N)N)C(=O)N[C@@H](CCCCN)C(=O)N[C@@H](CCC(N)=O)C(=O)N[C@@H](C)C(=O)N[C@@H](CCCCN)C(=O)N[C@@H](C)C(=O)N[C@@H](CCCCN)C(=O)N[C@@H](CO)C(=O)N[C@@H](CCCCN)C(N)=O)[C@@H](C)CC [LLIILRRRWRKQAKAKSK] | – | 8 (≈ 18.1 µg/mL) | 4 (≈ 9.06 µg/mL) | 4 (≈ 9.06 µg/mL) | 4 (≈ 9.06 µg/mL) | 8 (≈ 18.1 µg/mL) | 8 (≈ 18.1 µg/mL) | –
CC[C@H](C)[C@H](NC(=O)[C@H](CCCN=C(N)N)NC(=O)[C@@H](N)CCCN=C(N)N)C(=O)N[C@@H](CCCCN)C(=O)N1CCC[C@H]1C(=O)N[C@@H](CCCN=C(N)N)C(=O)N1CCC[C@H]1C(=O)N1CCC[C@H]1C(=O)N[C@@H](CCCN=C(N)N)C(=O)N[C@@H](CC(C)C)C(=O)N1CCC[C@H]1C(=O)N[C@@H](CCCN=C(N)N)C(=O)N1CCC[C@H]1C(=O)N[C@@H](CCCN=C(N)N)C(=O)N1CCC[C@H]1C(=O)N[C@@H](CCCN=C(N)N)C(=O)O [RRIKPRPPRLPRPRPR] | 0.24 (≈ 0.492 µg/mL) | – | – | – | – | – | – | –
CC[C@H](C)[C@H](NC(=O)[C@H](CCCN=C(N)N)NC(=O)[C@H](CCCN=C(N)N)NC(=O)[C@@H]1CCCN1C(=O)[C@@H]1CCCN1C(=O)[C@H](CCCN=C(N)N)NC(=O)[C@H](Cc1c[nH]c2ccccc12)NC(=O)[C@H](CCCN=C(N)N)NC(=O)[C@@H]1CCCN1C(=O)[C@H](CC(C)C)NC(=O)[C@H](Cc1ccc(O)cc1)NC(=O)[C@@H]1CCCN1C(=O)[C@@H]1CCCN1C(=O)[C@H](CCCCN)NC(=O)[C@H](CC(=O)O)NC(=O)[C@@H](N)C(C)C)C(=O)N[C@@H](Cc1ccc(O)cc1)C(=O)N[C@@H](CC(N)=O)C(=O)N[C@@H](CCCN=C(N)N)C(N)=O [VDKPPYLPRWRPPRRIYNR] | 1.94 (≈ 4.8 µg/mL) | – | – | – | – | – | – | –
